This note sets out measurements from patent US4605785A, “1,1-diphenylpropanol derivatives, process for their preparation and pharmaceutical compositions containing them” (Richter Gedeon Vegyeszeti Gyar RT, priority 1982, dated 1986).

The subject of one series is hexabarbital oxidase. In words: Hexabarbital sleeping time (hexabarbital oxidase activity in vivo). Also on record: species or system Hann.-Wistar rats. Particulars: hexabarbital sodium 60 mg./kg. i.v., x ± S.E.; for Hexabarbital sleeping time in %-age of the control, 1 h: 1 h after single 40 mg./kg. oral dose; for Hexabarbital sleeping time in %-age of the control, 24 h: 24 h after single 40 mg./kg. oral dose. The method, then: The enzyme inducing activity was tested by the following methods: The change of hexabarbital oxidase activity was measured on Hann.-Wistar rats weighing 50-60 g. which were administered single 40 mg./kg. doses of the test compounds orally. One and 24 hours after treatment the animals were anaesthetized by a 60 mg./kg. i.v. dose of hexabarbital sodium, and the sleeping time, i.e. the time between the loss of righting reflex and full awakeness was measured (Noordhoex J.: Eur. J. Pharmacol., 3, 242, 1968). As a reference compound phenobarbital was used. The average of the groups and the standard error were determined. The results are given in Table 1, expressed in % of the control.

For another series, the system named is Hann.-Wistar rats. The experiment in a line: Acute toxicity, oral. Type of series: in vivo. The settings on record: 500 mg./kg. p.o. single dose; 14 days observation. The method, then: (§1) The acute toxicity of the compounds of formula (I) was determined on Hann.-Wistar rats selected from both sexes, weighing 160-180 g. each. The test compounds were administered in a single 500 mg./kg. oral dose. […] The results are set forth in the following Table 3, in which the percentage of the dead animals is indicated.

A short description of series [1]: Microsomal protein content of liver after treatment (Lowry). It is filed as in vivo, Female Hann.-Wistar rats. The settings on record: 24 h after single 40 mg/kg. oral dose; control 29.3 ± 1.01 = 100 ± 3.4%. The method, then:
(§2) To evaluate the enzyme inducing activity of the compounds of formula (I) the activity of the polysubstrate monooxygenase enzyme system of the liver, after treatment with placebo and the test compounds, respectively, was also tested. Female Hann.-Wistar rats weighing 50-60 g. each were administered a single 40 mg/kg. dose of the test compounds orally. 24 hours after treatment the animals were decapitated and their livers were eliminated. […] The cytochrome P-450 concentration was determined on the basis of the carbon monoxide differential spectrum of a reduced microsome suspension (Omura T. et al.: J. Biol. Chem. 239, 2370 (1964)). The quantity of cytochrome b-5 was determined from a NaDH differential spectrum (Raw J. et al.: J. Biol. Chem., 234, 1867 (1959)); the activity of NADPH: ferricytochrome C (P-450) reductase (E.C. 1.6.2.4) was measured by the method of Williams C. […] The activity of the aniline hydroxylase from the velocity of the p-amino-phenol formation was determined by the method of R. S. et al.: Toxicol. […] Pharmacol., 22, 50 (1972), while the aminopyrine-demethylase activity was measured by the quantity of the formaldehyde formed, using the method developed by Gourlay G. K. et al.: Biochem. Pharmacol., 27, 965 (1978). The protein content was determined using the method by Lowry O. H. et al.: J. Biochem., 193, 265 (1951). […]

The next series has as its system cytochrome b-5. In words: Quantity of cytochrome b-5 in liver after treatment. Particulars: 24 h after single 40 mg/kg. oral dose; control 8.6 ± 0.43 = 100 ± 5.0%. Type of series: in vivo, Female Hann.-Wistar rats. The method, then:
as §2

A further series concerns cytochrome P-450. The experiment in a line: Cytochrome P-450 concentration in liver after treatment. It is filed as in vivo, Female Hann.-Wistar rats. The settings on record: 24 h after single 40 mg/kg. oral dose; control 12.8 ± 0.63 = 100 ± 4.9%. The method, then: as §2
Series [2] is described as follows: Relative weight of liver after treatment. Type of series: in vivo, Female Hann.-Wistar rats. Particulars: 24 h after single 40 mg/kg. oral dose; control 4.3 ± 0.17 = 100 ± 3.9%. The method, then:
as §2

In series [3] the test system is NADPH: ferricytochrome C (P-450) reductase (E.C. 1.6.2.4). The experiment in a line: Activity of NADPH: ferricytochrome C (P-450) reductase in liver after treatment. It is filed as in vivo, Female Hann.-Wistar rats. Particulars: 24 h after single 40 mg/kg. oral dose; control 4868 ± 296.2 = 100 ± 6.1%. The method, then: as §2
The test system of another series is aminopyrine demethylase. In words: Aminopyrine demethylase activity in liver after treatment. It is filed as in vivo, Female Hann.-Wistar rats. The settings on record: 24 h after single 40 mg/kg. oral dose; control 254.8 ± 7.47 = 100 ± 2.9%. The method, then:
as §2

The next series deals with aniline hydroxylase. The experiment in a line: Aniline hydroxylase activity in liver after treatment. Type of series: in vivo, Female Hann.-Wistar rats. The settings on record: 24 h after single 40 mg/kg. oral dose; control 20.3 ± 0.88 = 100 ± 4.3%. On the procedure:
as §2

A short description of series [4]: CNS activity (electroshock, metrazole, thiosemicarbazide, strichnine, nicotine spasm, rotating rod, physostigmine lethality, yohimbine potentiation, analgesia). Particulars: oral, already at 40 mg./kg.; in words.
Description: The compounds of the formula (I) and phenobarbital were administered orally, in a dose of 40 mg./kg. and 80 mg./kg.
The next series in a line: Acute toxicity, oral. It is filed as in vivo, Hann.-Wistar rats. The settings on record: rat, in vivo, po. On the procedure: as §1

Consider `CCC(O)(c1cc(C)ccc1C)c1ccccc1OCc1ccccc1` (stereo not shown) [B, 1-(2,5-dimethylphenyl)-1-(2-benzyloxyphenyl)-propane-1-ol], for which, in the series on hexabarbital oxidase, the “Hexabarbital sleeping time in %-age of the control, 1 h” value was 119 ± 7.7 % of the control and the “Hexabarbital sleeping time in %-age of the control, 24 h” value was 58 ± 8.0 % of the control. Besides, in the series on Hann.-Wistar rats, the “Dead animals (%)” value is “.phi”.
Taken in the same sequence, the figures for `CCOC(=O)COc1ccccc1C(O)(CC)c1cccc(Cl)c1` (stereo not shown) [E, 1-(3-chlorophenyl)-1-[2-(ethoxycarbonylmethoxy)-phenyl]propane-1-ol] were 117 ± 1.1 % of the control, 58 ± 2.4 % of the control and “.phi”.
On to `CCC(O)(c1ccc(F)cc1)c1ccccc1OCc1ccccc1` (stereo not shown) [A, 1-(4-fluorophenyl)-1-(2-benzyloxyphenyl)-propane-1-ol], for which, in series [1], the “microsomal protein (mg./g. of liver), % of the control” value is listed as 109 ± 3.8%. In the series with cytochrome b-5, the “cytochrome b-5 (nmoles/g. of liver), % of the control” value was determined as 124 ± 3.8%. In addition, the “cytochrome P-450 (nmoles/g. of liver), % of the control” value with cytochrome P-450 worked out at 170 ± 8.8%. For the same compound, the “relative weight of liver (g./100 g. of body weight), % of the control” value in series [2] was 109 ± 2.5%. In the series on hexabarbital oxidase, the “Hexabarbital sleeping time in %-age of the control, 1 h” value is recorded as 95 ± 20.2 % of the control and the “Hexabarbital sleeping time in %-age of the control, 24 h” value is 46 ± 3.5 % of the control. Also, the “Dead animals (%)” value in the series on Hann.-Wistar rats is “.phi”. In addition, in series [3], the “C(P-450) reductase (nmoles/g. of liver/min.), % of the control” value was 155 ± 6.9%. Moreover, the “aminopyrine demethylase (nmoles/g. of liver/min.), % of the control” value with aminopyrine demethylase was determined as 150 ± 11.1%. Further, the “aniline hydroxylase (nmoles/g. of liver/min.), % of the control” value in the series on aniline hydroxylase amounted to 168 ± 8.9%.
Turning to `CCN(CC)C(=O)COc1ccc(C(O)(CC)c2cccc(C(F)(F)F)c2)cc1` (stereo not shown) [C, 1-(3-trifluoromethylphenyl)-1-[4-(diethylcarbamoylmethoxy)-phenyl]-propane-1-ol], in the series with hexabarbital oxidase, the “Hexabarbital sleeping time in %-age of the control, 1 h” value is 170 ± 10.0 % of the control and the “Hexabarbital sleeping time in %-age of the control, 24 h” value is 44 ± 2.0 % of the control. Moreover, the “Dead animals (%)” value with Hann.-Wistar rats is given as “.phi”.
As to `CCN(CC)C(=O)COc1ccccc1C(O)(CC)c1cccc(Cl)c1` (stereo not shown) [Compound D, 1-(3-chlorophenyl)-1-[2-(diethylcarbamoylmethoxy)-phenyl]-propane-1-ol], the “microsomal protein (mg./g. of liver), % of the control” value in series [1] is reported as 120 ± 6.7%. Also, in the series on cytochrome b-5, the “cytochrome b-5 (nmoles/g. of liver), % of the control” value is reported as 122 ± 6.3%. In addition, the “cytochrome P-450 (nmoles/g. of liver), % of the control” value with cytochrome P-450 is given as 199 ± 17.7%. For the same compound, the “relative weight of liver (g./100 g. of body weight), % of the control” value in [2] was 107 ± 4.4%. Moreover, in the series on hexabarbital oxidase, the “Hexabarbital sleeping time in %-age of the control, 1 h” value is recorded as 139 ± 14.4 % of the control and the “Hexabarbital sleeping time in %-age of the control, 24 h” value is 50 ± 3.0 % of the control. For the same compound, the “Dead animals (%)” value with Hann.-Wistar rats is listed as “.phi”. The “C(P-450) reductase (nmoles/g. of liver/min.), % of the control” value in [3] is 144 ± 11.9%. Besides, the “aminopyrine demethylase (nmoles/g. of liver/min.), % of the control” value in the series on aminopyrine demethylase is given as 129 ± 6.0%. Moreover, the “aniline hydroxylase (nmoles/g. of liver/min.), % of the control” value with aniline hydroxylase was found to be 189 ± 12.3%.
Usually LD50 stands for the dose expected to kill half of the subjects tested. As to `CCC1(c2ccccc2)C(=O)NC(=O)NC1=O` [phenobarbital, reference compound], the “CNS activity (anticonvulsive, muscle coordinating, sedative)” value in [4] was “significant anticonvulsive muscle coordinating and sedative effect”. Besides, in the series on hexabarbital oxidase, the “Hexabarbital sleeping time in %-age of the control, 1 h” value is 250 ± 15.8 % of the control and the “Hexabarbital sleeping time in %-age of the control, 24 h” value is on record as 60 ± 7.3 % of the control. For the same compound, the mortality at 336 h in the series “Acute toxicity, oral” (500 mg./kg. p.o. single dose, 14 days observation, read-out: Dead animals (%)) came out at 100%. For the same compound, the median lethal dose (LD50) in the series “Acute toxicity, oral” (footnote to Table 3) was 254 mg/kg.
